From ChEMBL document CHEMBL5356993, “Novel pyrazolo[3,4-d]pyrimidine derivatives: design, synthesis, anticancer evaluation, VEGFR-2 inhibition, and antiangiogenic activity” (RSC Med Chem, 2023)

What was measured:
[1] = system: HUVEC; assay: Antiangiogenic activity against HUVEC cells assessed as wound closure at IC50 incubated for 72 hrs by wound healing assay (reference value: 98.518 %); type: functional, Homo sapiens
[2] = system: HUVEC; assay: Antiangiogenic activity against HUVEC cells assessed as decrease in healing rate at IC50 incubated for 72 hrs by wound healing assay relative to control; type: functional, Homo sapiens; design: scale not given: the % may be the effect or the level left
[3] = system: MDA-MB-468; assay: Induction of apoptosis in human MDA-MB-468 cells assessed as increase in caspase-3 level incubated for 2 hrs by ELISA (reference value: 2.109 ng/ml); type: functional

CCN(CC)CCNC(=O)c1c(C)[nH]c(/C=C2\C(=O)Nc3ccc(F)cc32)c1C [SUNITINIB]
Activity [1]: 57.777%
Activity [2]: 41%
Activity [3]: 21.83 ng/mL
